Assay [1] has as its target T1, BTK (Homo sapiens, UniProt Q06187).
T1 construct: purchased Cama
Kind of assay: Assay to determine activity against BTK. Type of assay: biochemical. The conditions noted are these: 1 mM ATP, 2 nM BTK, 90 minutes at room temperature. As for the experimental part: Solutions of compounds (test or control) in DMSO were prepared at the desired concentrations, and serially diluted to 11 concentrations by 3-fold dilution in 384pp-plate using TECAN EVO200. 20 nL of stock were transferred to 384 plate using Echo550. DMSO was used as vehicle control.
(BTK was obtained from Cama; FLPeptide2 was obtained from PerkinElmer and Ibrutinib was obtained from Selleck.) 5 μL of ATP solution were added to each well, followed by addition of 15 μL of BTK solution to initiate the reaction. (Note the final volume of each well was 20 μL containing MgCl2 (10 mM), Brij-35 (0.01%), DTT (2 mM), BSA (0.05%), EGTA (1 mM), HEPE (pH7.5) (50 mM), FLPeptide (1.5 uM), ATP (1 mM) and BTK (2 nM).
The plates were incubated at room temperature for 90 minutes and then stopping buffer added (75 μL, containing 0.5 M EDTA) to terminate the reaction. Samples from each well were analyzed using EZ reader. The % remaining activity was calculated using read conversion ratio (CR) according to the equation: […]
XLFit (equation 201) was used to calculate IC50's by floating both bottom and top.

Assay [2] deals with BTK in RAMOS B cells. Kind of assay: Assay to determine BTK activity in RAMOS B cells (anti-IgM, FLIPR Calcium 6). Type of assay: cell-based. The conditions noted are these: anti-IgM EC80, calcium readout. The protocol:
On the day before assay, Ramos B cells were plated in plating medium (RPMI1640 medium containing 1% FBS and 1× pencillin-streptomycin). On the day of the assay, 2× dye solution was prepared following the manual of the FLIRP Calcium 6 Assay Kit: Dilute the dye with assay buffer (20 mM HEPES in IX HBSS, pH7.4); Add probenecid to the final concentration of 5 mM; vortex vigorously for 1-2 minutes. Cells were collected by centrifuging, and the pellet was re-suspended in plating medium. After counting, cells were re-suspended at a density of 3×10^6/ml in plating medium. Equal volume of 2× dye solution was added to the cell suspension. Cells were then plated at 20 μl/well into a 384-well poly-D-lysine coated plate. Plate was centrifuged at 1000 rpm for 3 minutes and then incubated at 37° C. for 2 hours followed by an additional 15-minute incubation at 25° C. Compounds were prepared at 3× concentration in dilution buffer (20 mM HEPES and 0.1% BSA in 1×HBSS, pH 7.4). Serially diluted compound was transferred from source plate to a 384-well compound plate by using an Echo 550 (Labcyte). 20 μl/well compound dilution buffer was added to the compound plate and mixed on plate shaker for 2 mins. 4× EC80 of Anti-IgM (Jackson ImmunoResearch) was prepared in dilution buffer and 20 μl/well was added to a new 384-well compound plate. After 60 mins of incubation at 25° C. in the dark; cell plate, compound plate containing 4×EC80 of anti-IgM and FLIPR tips were placed into FLIPR (Molecular Devices). 10 ul/well of 4×EC80 anti-IgM was transferred to the cell plate by FLIPR. Plates were read for 160 sec with 1 sec interval.

T1 sequence (Q06187 whole entry): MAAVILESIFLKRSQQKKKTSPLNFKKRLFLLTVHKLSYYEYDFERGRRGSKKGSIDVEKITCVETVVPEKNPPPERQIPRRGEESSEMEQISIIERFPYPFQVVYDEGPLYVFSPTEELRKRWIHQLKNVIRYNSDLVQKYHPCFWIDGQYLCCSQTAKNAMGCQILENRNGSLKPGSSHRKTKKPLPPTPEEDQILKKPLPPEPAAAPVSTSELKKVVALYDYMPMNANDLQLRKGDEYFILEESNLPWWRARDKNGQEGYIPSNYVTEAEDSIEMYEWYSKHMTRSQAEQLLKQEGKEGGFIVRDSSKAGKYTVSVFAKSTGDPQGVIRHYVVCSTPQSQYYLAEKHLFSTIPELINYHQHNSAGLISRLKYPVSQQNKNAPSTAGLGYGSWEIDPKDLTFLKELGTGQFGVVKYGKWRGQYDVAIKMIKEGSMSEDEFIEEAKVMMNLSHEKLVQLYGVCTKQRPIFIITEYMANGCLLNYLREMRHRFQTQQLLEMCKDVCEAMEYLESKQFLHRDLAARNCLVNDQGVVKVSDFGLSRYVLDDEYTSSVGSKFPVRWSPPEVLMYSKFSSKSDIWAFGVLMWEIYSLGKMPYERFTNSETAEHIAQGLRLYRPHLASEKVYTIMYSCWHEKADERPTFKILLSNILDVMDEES

As a reminder, the IC50 is the concentration needed to halve the response being measured. Regarding `C=CC(=O)N1CCc2c(cccc2-c2c(F)cc(C(N)=O)c3[nH]c4c(c23)CCCCC4)C1` (single isomer, unassigned) [Compound 5-1, 2-fluoro-1-[2-(prop-2-enoyl)-3,4-dihydro-1H-isoquinolin-5-yl]-5H,6H,7H,8H,9H,10H-cyclohepta[b]indole-4-carboxamide], the IC50 in assay [1] and in assay [2] was 10 to 100 nM in each case.

For the compound `C=CC(=O)N1CCc2c(-c3c(F)cc(C(N)=O)c4[nH]c5c(c34)CC3(CC5)CC3)cccc2[C@@H]1C` (atropisomer, axis not shown) [Compound 7-20, 5-((S)-2-acryloyl-1-methyl-1,2,3,4-tetrahydroisoquinolin-5-yl)-6-fluoro-1,2,4,9-tetrahydrospiro[carbazole-3,1′-cyclopropane]-8-carboxamide], the IC50 in assay [1] is not below 100 nM; in assay [2] (Homo sapiens, Ramos) it was not below 100 nM.

For the compound `C=CC(=O)N1CCc2c(cccc2-c2c(C)nc(C(N)=O)c3[nH]c4c(c23)CCCC4)C1` (single isomer, unassigned) [Compound 2-7, 4-(2-acryloyl-1,2,3,4-tetrahydroisoquinolin-5-yl)-3-methyl-6,7,8,9-tetrahydro-5H-pyrido[3,4-b]indole-1-carboxamide], the IC50 in assay [1] and in assay [2] was not below 100 nM in each case.

On to `C=CC(=O)N1CCc2c(cccc2-c2c(C)nc(C(N)=O)c3[nH]c4c(c23)CCCC4)C1` (single isomer, unassigned) [Compound 2-6, 4-(2-acryloyl-1,2,3,4-tetrahydroisoquinolin-5-yl)-3-methyl-6,7,8,9-tetrahydro-5H-pyrido[3,4-b]indole-1-carboxamide], for which the IC50 is less than 10 nM in assay [1] and 10 to 100 nM in assay [2].

As for `CC#CC(=O)N1CCC=C(c2cnc(C(N)=O)c3[nH]c4c(c23)CCCC4)C1` [Compound 2-8, 4-(1-(but-2-ynoyl)-1,2,5,6-tetrahydropyridin-3-yl)-6,7,8,9-tetrahydro-5H-pyrido[3,4-b]indole-1-carboxamide], the half-maximal inhibitory concentration (IC50) was 10 to 100 nM in assay [1] and not below 100 nM in assay [2] (Homo sapiens, Ramos).

Take `C=CC(=O)N1CCc2c(cccc2-c2cnc(C(N)=O)c3[nH]c4c(c23)CCCC4)C1` [Compound 2-1, 4-(2-acryloyl-1,2,3,4-tetrahydroisoquinolin-5-yl)-6,7,8,9-tetrahydro-5H-pyrido[3,4-b]indole-1-carboxamide]: the IC50 in assay [1] lay in the range of 10 to 100 nM; in assay [2] (Homo sapiens, Ramos), 10 to 100 nM.

On to `C=CC(=O)N[C@H]1C[C@H](F)CN(c2c(F)cc(C(N)=O)c3[nH]c4c(c23)CC2(CC4)CC2)C1` [Compound 7-22, 5-((3S,5S)-3-acrylamido-5-fluoropiperidin-1-yl)-6-fluoro-1,2,4,9-tetrahydrospiro[carbazole-3,1′-cyclopropane]-8-carboxamide], for which the half-inhibitory concentration (IC50) in assay [1] lay in the range of 10 to 100 nM; in assay [2] (Homo sapiens, Ramos), 10 to 100 nM.

For the compound `CC#CC(=O)N[C@H]1C[C@H](F)CN(c2c(F)cc(C(N)=O)c3[nH]c4c(c23)CC2(CC4)CC2)C1` [Compound 7-23, 5-((3S,5S)-3-(but-2-ynamido)-5-fluoropiperidin-1-yl)-6-fluoro-1,2,4,9-tetrahydrospiro[carbazole-3,1′-cyclopropane]-8-carboxamide], the half-maximal inhibitory concentration (IC50) in assay [1] was less than 10 nM; in assay [2] (Homo sapiens, Ramos), less than 10 nM.

As for `C=CC(=O)N1CCC=C(c2ccc(C(N)=O)c3[nH]c4c(c23)CSCC4)C1` [Compound 8-1, 9-(1-acryloyl-1,2,5,6-tetrahydropyridin-3-yl)-1,3,4,5-tetrahydrothiopyrano-[4,3-b]indole-6-carboxamide], the IC50 in assay [1] was less than 10 nM; in assay [2] (Homo sapiens, Ramos) it was less than 10 nM.

Consider `CC#CC(=O)N[C@H]1C[C@@H](O)CN(c2c(F)cc(C(N)=O)c3[nH]c4c(c23)CCCCC4)C1` [Compound 4-4, 1-((3S,5R)-3-(but-2-ynamido)-5-hydroxypiperidin-1-yl)-2-fluoro-5,6,7,8,9,10-hexahydrocyclohepta[b]indole-4-carboxamide], for which the IC50 was 10 to 100 nM in assay [1] and not below 100 nM in assay [2] (Homo sapiens, Ramos).
